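The compound was tested at five concentrations on cells cultured in 96-well plates, with a 48-hour exposure period. GI50 = concentration required for 50% inhibition of growth. TGI: concentration producing complete growth inhibition.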
Tests used:
Assay in all cases: DTP human tumour cell line panel, 48 h
RXF 393 renal = system: RXF 393 renal
T-47D breast = system: T-47D breast
TK-10 renal = system: TK-10 renal
SK-MEL-2 melanoma = system: SK-MEL-2 melanoma
SW-620 colon = system: SW-620 colon
DU-145 prostate = system: DU-145 prostate
NCI-H23 lung = system: NCI-H23 lung
LOX IMVI melanoma = system: LOX IMVI melanoma
EKVX NSCLC = system: EKVX NSCLC
MOLT-4 leukemia = system: MOLT-4 leukemia
UO-31 renal = system: UO-31 renal
HOP-92 NSCLC = system: HOP-92 NSCLC
HL-60(TB) leukemia = system: HL-60(TB) leukemia
MDA-MB-435 = system: MDA-MB-435
CCRF-CEM leukemia = system: CCRF-CEM leukemia
OVCAR-3 ovarian = system: OVCAR-3 ovarian
A498 renal = system: A498 renal
UACC-257 melanoma = system: UACC-257 melanoma
HCT-116 colon = system: HCT-116 colon
CAKI-1 renal = system: CAKI-1 renal
SN12C renal = system: SN12C renal
NCI/ADR-RES ovarian = system: NCI/ADR-RES ovarian
HT29 colon = system: HT29 colon
MDA-MB-468 breast = system: MDA-MB-468 breast
SK-OV-3 ovarian = system: SK-OV-3 ovarian
NCI-H522 lung = system: NCI-H522 lung
HCT-15 colon = system: HCT-15 colon
KM12 colon = system: KM12 colon
PC-3 prostate = system: PC-3 prostate
HS 578T breast = system: HS 578T breast
COLO 205 colon = system: COLO 205 colon
HOP-62 NSCLC = system: HOP-62 NSCLC
OVCAR-5 ovarian = system: OVCAR-5 ovarian
SK-MEL-5 melanoma = system: SK-MEL-5 melanoma
SNB-75 CNS = system: SNB-75 CNS
MDA-MB-231 breast = system: MDA-MB-231 breast
MALME-3M melanoma = system: MALME-3M melanoma
MCF7 breast = system: MCF7 breast
M14 melanoma = system: M14 melanoma
SNB-19 CNS = system: SNB-19 CNS
HCC-2998 colon = system: HCC-2998 colon
NCI-H226 lung = system: NCI-H226 lung
NCI-H460 lung = system: NCI-H460 lung
A549 NSCLC = system: A549 NSCLC
SF-539 CNS = system: SF-539 CNS
IGROV1 ovarian = system: IGROV1 ovarian
U251 CNS = system: U251 CNS
UACC-62 melanoma = system: UACC-62 melanoma
SF-295 CNS = system: SF-295 CNS
SF-268 CNS = system: SF-268 CNS
786-0 renal = system: 786-0 renal
OVCAR-4 ovarian = system: OVCAR-4 ovarian
ACHN renal = system: ACHN renal
SR leukemia = system: SR leukemia
OVCAR-8 ovarian = system: OVCAR-8 ovarian
BT-549 breast = system: BT-549 breast
SK-MEL-28 melanoma = system: SK-MEL-28 melanoma

**Q.** `COc1cc2c3c(n(CCCNC(C)C)c(=O)c2cc1OC)-c1nc2c(cc1C3=O)OCO2` was tested. Which GI50 (RXF 393 renal) did it give?
**A.** 2260 nM

**Q.** And the TGI (RXF 393 renal)?
**A.** 14.7 µM

**Q.** And the GI50 (T-47D breast)?
**A.** 4.76 µM

**Q.** What about the TGI (T-47D breast) of the same molecule?
**A.** 28.6 µM

**Q.** And the GI50 (TK-10 renal)?
**A.** 19.6 µM

**Q.** And the TGI (TK-10 renal)?
**A.** 35.4 µM

**Q.** What about the GI50 (SK-MEL-2 melanoma) of the same molecule?
**A.** 21.1 µM

**Q.** What about the TGI (SK-MEL-2 melanoma) of the same molecule?
**A.** 40.6 µM

**Q.** What about the GI50 (SW-620 colon) of the same molecule?
**A.** 724 nM

**Q.** What about the TGI (SW-620 colon) of the same molecule?
**A.** 21.3 µM

**Q.** What about the GI50 (DU-145 prostate) of the same molecule?
**A.** 1050 nM

**Q.** And the TGI (DU-145 prostate)?
**A.** 16.6 µM

**Q.** What about the GI50 (NCI-H23 lung) of the same molecule?
**A.** 587 nM

**Q.** What about the TGI (NCI-H23 lung) of the same molecule?
**A.** 12.4 µM

**Q.** And the GI50 (LOX IMVI melanoma)?
**A.** 1010 nM

**Q.** What about the TGI (LOX IMVI melanoma) of the same molecule?
**A.** 2210 nM

**Q.** What about the GI50 (EKVX NSCLC) of the same molecule?
**A.** 10.7 µM

**Q.** What about the TGI (EKVX NSCLC) of the same molecule?
**A.** 23.6 µM

**Q.** And the GI50 (MOLT-4 leukemia)?
**A.** 45.7 nM

**Q.** What about the TGI (MOLT-4 leukemia) of the same molecule?
**A.** 2130 nM

**Q.** What about the GI50 (UO-31 renal) of the same molecule?
**A.** 5.86 µM

**Q.** What about the TGI (UO-31 renal) of the same molecule?
**A.** 20.4 µM

**Q.** What about the GI50 (HOP-92 NSCLC) of the same molecule?
**A.** 10.6 µM

**Q.** And the TGI (HOP-92 NSCLC)?
**A.** 24.9 µM

**Q.** What about the GI50 (HL-60(TB) leukemia) of the same molecule?
**A.** 3.77 µM

**Q.** And the TGI (HL-60(TB) leukemia)?
**A.** 21.2 µM

**Q.** What about the GI50 (MDA-MB-435) of the same molecule?
**A.** 2160 nM

**Q.** And the TGI (MDA-MB-435)?
**A.** 10.9 µM

**Q.** And the GI50 (CCRF-CEM leukemia)?
**A.** 43.7 nM

**Q.** What about the TGI (CCRF-CEM leukemia) of the same molecule?
**A.** 1320 nM

**Q.** What about the GI50 (OVCAR-3 ovarian) of the same molecule?
**A.** 14.3 µM

**Q.** And the TGI (OVCAR-3 ovarian)?
**A.** 28.3 µM

**Q.** What about the GI50 (A498 renal) of the same molecule?
**A.** 12.2 µM

**Q.** And the TGI (A498 renal)?
**A.** 27 µM

**Q.** What about the GI50 (UACC-257 melanoma) of the same molecule?
**A.** 13.8 µM

**Q.** And the TGI (UACC-257 melanoma)?
**A.** 29 µM

**Q.** And the GI50 (HCT-116 colon)?
**A.** 1040 nM

**Q.** What about the TGI (HCT-116 colon) of the same molecule?
**A.** 2280 nM

**Q.** And the GI50 (CAKI-1 renal)?
**A.** 2430 nM

**Q.** And the TGI (CAKI-1 renal)?
**A.** 19.2 µM

**Q.** What about the GI50 (SN12C renal) of the same molecule?
**A.** 10.6 µM

**Q.** What about the TGI (SN12C renal) of the same molecule?
**A.** 23.5 µM

**Q.** And the GI50 (NCI/ADR-RES ovarian)?
**A.** 1520 nM

**Q.** What about the TGI (NCI/ADR-RES ovarian) of the same molecule?
**A.** 3.25 µM

**Q.** What about the GI50 (HT29 colon) of the same molecule?
**A.** 1350 nM

**Q.** What about the TGI (HT29 colon) of the same molecule?
**A.** 22.7 µM

**Q.** And the GI50 (MDA-MB-468 breast)?
**A.** 492 nM

**Q.** What about the TGI (MDA-MB-468 breast) of the same molecule?
**A.** 6.08 µM

**Q.** And the GI50 (SK-OV-3 ovarian)?
**A.** 2040 nM

**Q.** And the TGI (SK-OV-3 ovarian)?
**A.** 19.2 µM

**Q.** And the GI50 (NCI-H522 lung)?
**A.** 768 nM

**Q.** What about the TGI (NCI-H522 lung) of the same molecule?
**A.** 27.6 µM

**Q.** What about the GI50 (HCT-15 colon) of the same molecule?
**A.** 1210 nM

**Q.** And the TGI (HCT-15 colon)?
**A.** 2610 nM

**Q.** What about the GI50 (KM12 colon) of the same molecule?
**A.** 12.8 µM

**Q.** What about the TGI (KM12 colon) of the same molecule?
**A.** 28.6 µM

**Q.** What about the GI50 (PC-3 prostate) of the same molecule?
**A.** 2720 nM

**Q.** And the TGI (PC-3 prostate)?
**A.** 21.9 µM

**Q.** And the GI50 (HS 578T breast)?
**A.** 11.8 µM

**Q.** And the TGI (HS 578T breast)?
**A.** 33 µM

**Q.** What about the GI50 (COLO 205 colon) of the same molecule?
**A.** 3.98 µM

**Q.** What about the TGI (COLO 205 colon) of the same molecule?
**A.** 23 µM

**Q.** And the GI50 (HOP-62 NSCLC)?
**A.** 474 nM

**Q.** What about the TGI (HOP-62 NSCLC) of the same molecule?
**A.** 18.5 µM

**Q.** And the GI50 (OVCAR-5 ovarian)?
**A.** 13 µM

**Q.** And the TGI (OVCAR-5 ovarian)?
**A.** 26.3 µM

**Q.** And the GI50 (SK-MEL-5 melanoma)?
**A.** 1390 nM

**Q.** And the TGI (SK-MEL-5 melanoma)?
**A.** 5.35 µM

**Q.** And the GI50 (SNB-75 CNS)?
**A.** 825 nM

**Q.** What about the TGI (SNB-75 CNS) of the same molecule?
**A.** 12.4 µM

**Q.** And the GI50 (MDA-MB-231 breast)?
**A.** 1420 nM

**Q.** What about the TGI (MDA-MB-231 breast) of the same molecule?
**A.** 2810 nM

**Q.** What about the GI50 (MALME-3M melanoma) of the same molecule?
**A.** 1540 nM

**Q.** And the TGI (MALME-3M melanoma)?
**A.** 3.01 µM

**Q.** What about the GI50 (MCF7 breast) of the same molecule?
**A.** 101 nM

**Q.** What about the TGI (MCF7 breast) of the same molecule?
**A.** 3.07 µM

**Q.** What about the GI50 (M14 melanoma) of the same molecule?
**A.** 3.42 µM

**Q.** What about the TGI (M14 melanoma) of the same molecule?
**A.** 18.1 µM

**Q.** And the GI50 (SNB-19 CNS)?
**A.** 2000 nM

**Q.** And the TGI (SNB-19 CNS)?
**A.** 18.7 µM

**Q.** What about the GI50 (HCC-2998 colon) of the same molecule?
**A.** 9.38 µM

**Q.** What about the TGI (HCC-2998 colon) of the same molecule?
**A.** 21.5 µM

**Q.** What about the GI50 (NCI-H226 lung) of the same molecule?
**A.** 2220 nM

**Q.** And the TGI (NCI-H226 lung)?
**A.** 13.3 µM

**Q.** And the GI50 (NCI-H460 lung)?
**A.** 294 nM

**Q.** And the TGI (NCI-H460 lung)?
**A.** 11.6 µM

**Q.** And the GI50 (A549 NSCLC)?
**A.** 2520 nM

**Q.** What about the TGI (A549 NSCLC) of the same molecule?
**A.** 24.2 µM

**Q.** What about the GI50 (SF-539 CNS) of the same molecule?
**A.** 1520 nM

**Q.** And the TGI (SF-539 CNS)?
**A.** 7.26 µM

**Q.** And the GI50 (IGROV1 ovarian)?
**A.** 14.8 µM

**Q.** And the TGI (IGROV1 ovarian)?
**A.** 30.7 µM

**Q.** What about the GI50 (U251 CNS) of the same molecule?
**A.** 588 nM

**Q.** What about the TGI (U251 CNS) of the same molecule?
**A.** 19.8 µM

**Q.** What about the GI50 (UACC-62 melanoma) of the same molecule?
**A.** 9.84 µM

**Q.** What about the TGI (UACC-62 melanoma) of the same molecule?
**A.** 23.6 µM

**Q.** What about the GI50 (SF-295 CNS) of the same molecule?
**A.** 348 nM

**Q.** And the TGI (SF-295 CNS)?
**A.** 15 µM

**Q.** What about the GI50 (SF-268 CNS) of the same molecule?
**A.** 1170 nM

**Q.** And the TGI (SF-268 CNS)?
**A.** 23.4 µM

**Q.** And the GI50 (786-0 renal)?
**A.** 1550 nM

**Q.** What about the TGI (786-0 renal) of the same molecule?
**A.** 2980 nM

**Q.** What about the GI50 (OVCAR-4 ovarian) of the same molecule?
**A.** 17.1 µM

**Q.** And the TGI (OVCAR-4 ovarian)?
**A.** 39.9 µM

**Q.** What about the GI50 (ACHN renal) of the same molecule?
**A.** 1500 nM

**Q.** And the TGI (ACHN renal)?
**A.** 13.2 µM

**Q.** What about the GI50 (SR leukemia) of the same molecule?
**A.** 359 nM

**Q.** And the TGI (SR leukemia)?
**A.** 2770 nM

**Q.** And the GI50 (OVCAR-8 ovarian)?
**A.** 5.28 µM

**Q.** What about the TGI (OVCAR-8 ovarian) of the same molecule?
**A.** 24.9 µM

**Q.** And the GI50 (BT-549 breast)?
**A.** 4.17 µM

**Q.** What about the TGI (BT-549 breast) of the same molecule?
**A.** 23.1 µM

**Q.** And the GI50 (SK-MEL-28 melanoma)?
**A.** 4.94 µM

**Q.** What about the TGI (SK-MEL-28 melanoma) of the same molecule?
**A.** 18.2 µM

From PubChem BioAssay (NCI)
